# From patent US6518269B1, “Cancer treatment” (University of Arizona Foundation, priority 2000, dated 2003)
# Legend:
# [1] = system: HT29 Colon Cancer; assay: MTT growth inhibition assay, HT29 Colon Cancer; assay type: cell-based; conditions: Homo sapiens, HT-29, HT29 Colon Cancer cells
# Experimental: (§1) Each of the following compounds was tested for growth inhibition in a MTT assay against B16 Murine Melanoma and HT29 Colon Cancer, reported as IC50(μM).
# [2] = system: B16 Murine Melanoma; assay: MTT growth inhibition assay, B16 Murine Melanoma; assay type: cell-based; conditions: Mus musculus, B16 Murine Melanoma cells
# Experimental: as §1
SMILES,IC50 [1],IC50 [2]
"O=c1cnnc(N/N=C/c2ccccc2O)[nH]1 [Compound I, benzaldehyde, 2-hydroxy-, (4-hydro-5-oxo-1,2,4-triazin-3-yl)hydrazide]",7 nM,264 nM
"Cc1nnc(N/N=C/c2ccccc2O)[nH]c1=O [Compound II, benzaldehyde, 2-hydroxy-, (4-hydro-5-oxo-6-methyl-1,2,4-triazin-3-yl)hydrazide]",19 nM,1100 nM
